Laboratory results taken from patent publication US20140349943A1, “TOPICAL FORMULATIONS OF CHEMERIN C15 PEPTIDES FOR THE TREATMENT OF DERMATOLOGICAL CONDITIONS” (priority 2011, published 2014).
Read-outs that look alike come from different tables or passages of the source. Peptide text beside a SMILES is read from it.

How the values were obtained:
Type in all cases: cell-based
GPR1 = target: T1, GPR1 (Homo sapiens, UniProt P46091); assay: PathHunter β-Arrestin assay, GPR1, agonist and antagonist mode; details: for agonist activity, in words / Rank Order / % Max Activity / % Max Inhibition / antagonist activity, in words: GPR1; for agonist activity, in words: FIG. 2A/2B; for Rank Order: agonist; for % Max Activity: agonist mode; for % Max Inhibition: antagonist mode, chemerin at EC80; for antagonist activity, in words: chemerin at 80% maximum signal
T1 construct: host or cells: CHO
T1 sequence (P46091 1-355): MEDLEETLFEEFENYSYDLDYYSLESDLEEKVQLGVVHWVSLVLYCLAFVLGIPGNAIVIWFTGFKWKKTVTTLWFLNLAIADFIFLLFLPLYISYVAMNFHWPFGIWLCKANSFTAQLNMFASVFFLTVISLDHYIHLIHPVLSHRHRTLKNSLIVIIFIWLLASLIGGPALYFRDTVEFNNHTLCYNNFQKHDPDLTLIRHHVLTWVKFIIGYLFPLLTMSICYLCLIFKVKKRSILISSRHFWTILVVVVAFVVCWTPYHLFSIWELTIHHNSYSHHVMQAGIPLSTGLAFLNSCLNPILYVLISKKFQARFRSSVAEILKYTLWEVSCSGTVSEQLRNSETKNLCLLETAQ
Method: (§1) The DiscoveRx PathHunter™ eXpress GPCR activity assay was employed to test agonist and antagonist activities of the chemerin peptides against the GPCRs ChemR23 and GPR1. Two assay formats were tested, the PathHunter β-Arrestin assay and the Hit Hunter cAMP Hunter assay.
(§2) The PathHunter β-Arrestin assay monitors the activation of a GPCR in a homogenous, non-imaging assay format using a technology developed by DiscoveRx called complementation, which utilizes an enzyme fragment complementation (EFC) assay with β-galactosidase (β-Gal) as the functional reporter. The enzyme is split into two complementary portions expressed as fusion proteins in the cell. The Enzyme Acceptor (EA) is fused to β-Arrestin and the ProLink donor peptide is fused to the GPCR of interest. Upon GPCR stimulation, β-Arrestin is recruited to the receptor for desensitization, bringing the two fragments of β-Gal together and allowing complementation to occur.
(§3) The assay involves CHO cell lines that express 1) a GPCR of interest (e.g. ChemR23 or GPR1) that has a fragment of the βgal enzyme fused to the C-terminus of the receptor and 2) a β-arrestin fused to the main β-gal enzyme. When the agonist binds to the receptor, β-arrestin is recruited to the receptor and the β-gal enzyme is complemented by the fragment from the GPCR thus forming a functional β-gal enzyme. A substrate is then added and luminescence is generated to detect β-arrestin recruitment.
(§4) The protocol used was a standard protocol employed by DiscoveRx PathHunter™ profiling service. […] Once it was established that the cells were healthy and growing normally, cells were passaged from flasks using cell dissociation reagent and seeded into white walled clear bottom 384-well microplates for compound profiling. For profiling, cells were seeded at a density of 5000 cells per well in a total volume of 20 μL and were allowed to adhere and recover overnight prior to compound addition.
(§5) For the agonist assay, intermediate dilution of compound stocks were generated such that 5 μL of 5× compound could be added to each well with a final DMSO concentration of 1% of total volume. For profiling compound in agonist mode, the cells were incubated in the presence of compound at 37° C. for 90 minutes.
(§6) For the antagonist assay, agonist dose curves were performed the morning of profiling to determine the EC80 value for the following antagonist testing with compounds. 5 μL of 5× agonist (i.e. chemerin) was added to each well with an equal concentration of vehicle present. EC80 agonist concentration was determined directly from agonist dose curve. For antagonist determination, cells were preincubated with antagonist followed by agonist challenge at the EC80 concentration: 4. 5 μL of 5× compound added to cells and incubated at 37° C. for 30 minutes. 5. 5 μL of 6× EC80 agonist added to cells and incubated at 37° C. for 90 minutes.
(§7) Microplates were read following signal generation with a PerkinElmer Envision™ instrument for chemiluminescent signal detection
(§8) Dose curves in the presence and absence of compound were plotted using GraphPad Prism or Activity Base. For agonist mode assays, percentage activity was calculated using the following formula: % Activity=100%×(Mean RLU of test sample−mean RLU of vehicle control)/(mean MAX RLU control ligand−mean RLU of vehicle control)). For antagonist mode assays, percentage inhibition was calculated using the following formula: % Inhibition=100%×(1−(Mean RLU of test sample−mean RLU of vehicle control)/(mean RLU of EC80 control−mean RLU of vehicle control)).

mChemR23 = target: T2, mChemR23 (Mus musculus, UniProt P97468); assay: PathHunter β-Arrestin assay, mouse ChemR23
T2 construct: host or cells: CHO (stated generally for the PathHunter assay)
T2 sequence (P97468 1-371): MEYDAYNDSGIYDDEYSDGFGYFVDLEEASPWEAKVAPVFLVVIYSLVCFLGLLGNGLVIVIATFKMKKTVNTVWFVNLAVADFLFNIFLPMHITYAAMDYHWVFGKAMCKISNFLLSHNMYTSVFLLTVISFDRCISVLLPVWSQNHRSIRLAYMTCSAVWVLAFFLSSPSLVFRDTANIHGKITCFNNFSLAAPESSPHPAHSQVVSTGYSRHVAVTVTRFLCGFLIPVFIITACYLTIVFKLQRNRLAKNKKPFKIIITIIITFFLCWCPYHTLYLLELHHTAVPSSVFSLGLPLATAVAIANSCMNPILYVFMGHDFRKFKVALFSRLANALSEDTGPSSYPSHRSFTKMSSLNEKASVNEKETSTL
Method: as §1, §2, §3, §4, §5
as §6, with “5 μL of 6× EC80 agonist added to cells and incubated at 37° C. for 90 minutes.” left out
as §7, §8

ChemR23 (CMKLR1) = target: T3, ChemR23 (CMKLR1) (Homo sapiens, UniProt Q99788); assay: PathHunter β-Arrestin assay, ChemR23 (CMKLR1), agonist and antagonist mode; details: for Rank Order / % Max Activity / % Max Inhibition: ChemR23; for Rank Order: agonist; for % Max Activity: agonist mode; for % Max Inhibition: antagonist mode, chemerin at EC80; for agonist activity, in words / antagonist activity, in words: human ChemR23; for agonist activity, in words: FIG. 2A/2B; for antagonist activity, in words: chemerin at 80% maximum signal
T3 construct: host or cells: CHO
T3 sequence (Q99788 1-373): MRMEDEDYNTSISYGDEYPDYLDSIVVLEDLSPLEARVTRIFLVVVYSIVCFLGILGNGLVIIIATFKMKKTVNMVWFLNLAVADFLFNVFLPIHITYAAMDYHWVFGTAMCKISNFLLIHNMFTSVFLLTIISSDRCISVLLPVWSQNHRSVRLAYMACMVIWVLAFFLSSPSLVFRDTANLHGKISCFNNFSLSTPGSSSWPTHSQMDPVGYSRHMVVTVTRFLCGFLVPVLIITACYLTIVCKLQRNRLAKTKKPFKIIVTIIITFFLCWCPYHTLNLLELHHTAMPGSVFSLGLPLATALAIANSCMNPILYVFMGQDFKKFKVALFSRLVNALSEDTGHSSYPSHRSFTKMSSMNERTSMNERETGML
Method: as §1, §2, §3, §4, §5, §6, §7, §8

SMILES | IC50 (GPR1) [µM] | agonist activity, in words (GPR1) | Rank Order (GPR1) | % Max Activity (GPR1) [%] | % Max Inhibition (GPR1) [%] | antagonist activity, in words (GPR1) | IC50 (mChemR23) [µM] | EC50 (ChemR23 (CMKLR1)) [µM] | IC50 (ChemR23 (CMKLR1)) [µM] | Rank Order (ChemR23 (CMKLR1)) | % Max Activity (ChemR23 (CMKLR1)) [%] | % Max Inhibition (ChemR23 (CMKLR1)) [%] | agonist activity, in words (ChemR23 (CMKLR1)) | antagonist activity, in words (ChemR23 (CMKLR1)) | EC50 (ChemR23 (CMKLR1); read-out: RC50 (uM), EC50, Arrestin, Agonist, AssayTarget ChemR23) [µM] | EC50 (mChemR23) [µM]
CC(C)C[C@H](NC(=O)[C@H](Cc1ccccc1)NC(=O)[C@H](Cc1ccc(O)cc1)NC(=O)CNC(=O)[C@H](Cc1c[nH]cn1)NC(=O)[C@@H]1CCCN1C(=O)[C@H](CC(=O)O)NC(=O)[C@H](CCC(=O)O)NC(=O)CNC(=O)[C@H](C)N)C(=O)N1CCC[C@H]1C(=O)NCC(=O)N[C@@H](CCC(N)=O)C(=O)N[C@@H](Cc1ccccc1)C(=O)N[C@@H](C)C(=O)O [mC15] (H-AGEDPHGYFLPGQFA-OH; N-terminus and C-terminus assumed) | > 10 | neither human nor mouse chemerin C15 peptides acted as agonists | 4 | 27.8 | 0 | neither human nor mouse chemerin C15 peptides acted as antagonists | > 10 | > 10 | > 10 | 3 | 0.4 | 0 | neither human nor mouse chemerin C15 peptides acted as agonists | neither human nor mouse chemerin C15 peptides acted as antagonists | > 10 | –
C[C@H](N)C(=O)NCC(=O)N[C@@H](CCC(=O)O)C(=O)N[C@@H](CC(=O)O)C(=O)N1CCC[C@H]1C(=O)N[C@@H](Cc1c[nH]cn1)C(=O)N[C@@H](CO)C(=O)N[C@@H](Cc1ccccc1)C(=O)N[C@@H](Cc1ccc(O)cc1)C(=O)N[C@@H](Cc1ccccc1)C(=O)N1CCC[C@H]1C(=O)NCC(=O)N[C@@H](CCC(N)=O)C(=O)N[C@@H](Cc1ccccc1)C(=O)N[C@@H](C)C(=O)O [C15 (human)] (H-AGEDPHSFYFPGQFA-OH; N-terminus and C-terminus assumed) | > 10 | neither human nor mouse chemerin C15 peptides acted as agonists | 3 | 10.6 | 0 | neither human nor mouse chemerin C15 peptides acted as antagonists | – | > 10 | > 10 | 3 | 0.8 | 0 | neither human nor mouse chemerin C15 peptides acted as agonists | neither human nor mouse chemerin C15 peptides acted as antagonists | – | > 10
C[C@H](N)C(=O)NCC(=O)N[C@@H](CCC(=O)O)C(=O)N[C@@H](CC(=O)O)C(=O)N1CCC[C@H]1C(=O)N[C@@H](Cc1c[nH]cn1)C(=O)N[C@@H](CO)C(=O)N[C@@H](Cc1ccccc1)C(=O)N[C@@H](Cc1ccc(O)cc1)C(=O)N[C@@H](Cc1ccccc1)C(=O)N1CCC[C@H]1C(=O)NCC(=O)N[C@@H](CCC(N)=O)C(=O)N[C@@H](Cc1ccccc1)C(=O)N[C@@H](C)C(=O)N[C@@H](Cc1ccccc1)C(=O)N[C@@H](CO)C(=O)O [C17 (human)] (H-AGEDPHSFYFPGQFAFS-OH; N-terminus and C-terminus assumed) | > 10 | exhibited agonist activity | 1 | 80.9 | 0 | – | > 10 | – | > 10 | 2 | 67.5 | 0 | exhibited agonist activity | – | – | –
